We go through 17 compounds from ChEMBL document CHEMBL1158622, “Discovery of a series of indan carboxylic acid glycogen phosphorylase inhibitors” (Bioorg Med Chem Lett, 2010).

Data set [1] has as its target T1, Glycogen phosphorylase, liver form (Homo sapiens, UniProt P06737).
T1 sequence (P06737 whole entry): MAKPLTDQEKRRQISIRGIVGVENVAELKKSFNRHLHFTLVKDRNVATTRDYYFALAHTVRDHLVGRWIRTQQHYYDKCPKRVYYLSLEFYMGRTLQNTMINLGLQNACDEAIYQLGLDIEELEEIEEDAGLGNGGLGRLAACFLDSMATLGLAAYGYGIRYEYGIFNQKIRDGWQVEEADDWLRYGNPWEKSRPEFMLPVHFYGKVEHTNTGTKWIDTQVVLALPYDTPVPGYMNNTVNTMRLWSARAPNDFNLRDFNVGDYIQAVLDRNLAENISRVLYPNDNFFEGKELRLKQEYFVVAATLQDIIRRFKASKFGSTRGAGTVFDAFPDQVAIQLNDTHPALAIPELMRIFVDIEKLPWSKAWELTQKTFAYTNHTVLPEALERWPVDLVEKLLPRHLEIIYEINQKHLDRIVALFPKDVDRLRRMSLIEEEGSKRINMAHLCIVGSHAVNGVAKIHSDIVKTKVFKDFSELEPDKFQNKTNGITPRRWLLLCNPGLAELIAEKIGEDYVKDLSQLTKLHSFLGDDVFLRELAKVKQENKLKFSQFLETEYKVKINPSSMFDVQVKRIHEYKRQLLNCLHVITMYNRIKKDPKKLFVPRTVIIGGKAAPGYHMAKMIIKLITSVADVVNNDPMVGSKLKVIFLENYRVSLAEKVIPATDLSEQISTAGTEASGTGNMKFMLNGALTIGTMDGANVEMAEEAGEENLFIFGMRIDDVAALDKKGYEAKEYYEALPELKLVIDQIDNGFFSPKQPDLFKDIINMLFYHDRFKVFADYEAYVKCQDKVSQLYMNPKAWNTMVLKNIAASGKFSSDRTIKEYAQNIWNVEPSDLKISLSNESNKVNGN
In words: Inhibition of human recombinant liver glycogen phosphorylase by multienzyme-coupled reaction.

The nature of data set [2]: (§1) Oral bioavailability in rat at 5 mg/kg oral & 2 mg/kg iv dose. To be noted: in vivo. It is filed as ADME, organism-based.
The next data set has as its target T2, CYP1A2 (Homo sapiens, UniProt P05177).
T2 sequence (P05177 whole entry): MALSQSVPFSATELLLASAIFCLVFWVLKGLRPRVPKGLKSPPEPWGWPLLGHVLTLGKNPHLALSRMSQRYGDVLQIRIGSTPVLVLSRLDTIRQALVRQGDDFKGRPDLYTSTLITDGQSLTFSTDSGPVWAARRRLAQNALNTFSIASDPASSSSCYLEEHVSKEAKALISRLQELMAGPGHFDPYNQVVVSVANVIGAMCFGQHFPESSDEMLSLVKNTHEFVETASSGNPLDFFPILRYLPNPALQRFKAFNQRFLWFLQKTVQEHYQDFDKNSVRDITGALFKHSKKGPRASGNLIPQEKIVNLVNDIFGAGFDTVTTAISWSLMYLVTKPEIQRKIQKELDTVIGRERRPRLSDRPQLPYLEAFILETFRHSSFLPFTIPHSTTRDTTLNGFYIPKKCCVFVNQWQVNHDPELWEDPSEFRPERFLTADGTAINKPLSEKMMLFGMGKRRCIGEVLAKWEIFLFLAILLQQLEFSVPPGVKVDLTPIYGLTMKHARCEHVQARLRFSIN
In words: Inhibition of CYP1A2 at 10 uM. It is filed as ADME.

The target of a further data set is CYP2C9 (Homo sapiens, UniProt P11712). In words: Inhibition of CYP2C9 at 10 uM. It is filed as ADME.
The next data set addresses CYP2C19 (Homo sapiens, UniProt P33261). In words: Inhibition of CYP2C19 at 10 uM. It is filed as ADME.
A further data set has as its target CYP2D6 (Homo sapiens, UniProt P10635). In words: Inhibition of CYP2D6 at 10 uM. Type of data set: ADME.
For another data set, the target named is CYP3A4 (Homo sapiens, UniProt P08684). In words: Inhibition of […] at 10 uM. Type of data set: ADME.
Data set [3] in a line: Clearance in Wistar rat at […], iv and 11 to 12.2 umol/kg, po. It is filed as ADME, organism-based. To be noted: in vivo.
A short description of data set [4]: Volume of distribution in Wistar rat at […], iv and 11 to 12.2 umol/kg, po. It is filed as ADME, organism-based. To be noted: in vivo.
A short description of data set [5]: Oral bioavailability in male Wistar rats at 11 - 12.2 umol/kg oral & 4.3 - 4.9 umol/kg iv dose. It is filed as ADME, organism-based. To be noted: rat, in vivo.
A short description of data set [6]: Half life in male Wistar rats at 4.3 - 4.9 umol/kg iv dose (11 - 12.2 umol/kg oral). To be noted: rat, in vivo. It is filed as ADME, organism-based.
Data set [7] deals with Voltage-gated inwardly rectifying potassium channel KCNH2 (Homo sapiens, UniProt Q12809).
The species named for data set [8] is Rattus norvegicus. Put plainly: Free plasma concentration in rat. Type of data set: ADME, organism-based. The note with it: in vivo.
The subject of data set [9] is Rattus norvegicus. Described as §1. Type of data set: ADME, organism-based. The note with it: in vivo.
Data set [10] has as its system Rattus norvegicus. Put plainly: Antihyperglycemic activity in Zucker fa/fa rat assessed as reduction in glucose level at 17 umol/kg dosed 45 mins prior to glucagon challenge measured after 90 mins. Type of data set: functional. Further details: scale not given: the % may be the effect or the level left.

Values joined by “and” are separate entries in the source; they are usually repeats but may differ in a detail not shown here. Identical values can stand only once.

CYP2C9, sequence (P11712 whole entry): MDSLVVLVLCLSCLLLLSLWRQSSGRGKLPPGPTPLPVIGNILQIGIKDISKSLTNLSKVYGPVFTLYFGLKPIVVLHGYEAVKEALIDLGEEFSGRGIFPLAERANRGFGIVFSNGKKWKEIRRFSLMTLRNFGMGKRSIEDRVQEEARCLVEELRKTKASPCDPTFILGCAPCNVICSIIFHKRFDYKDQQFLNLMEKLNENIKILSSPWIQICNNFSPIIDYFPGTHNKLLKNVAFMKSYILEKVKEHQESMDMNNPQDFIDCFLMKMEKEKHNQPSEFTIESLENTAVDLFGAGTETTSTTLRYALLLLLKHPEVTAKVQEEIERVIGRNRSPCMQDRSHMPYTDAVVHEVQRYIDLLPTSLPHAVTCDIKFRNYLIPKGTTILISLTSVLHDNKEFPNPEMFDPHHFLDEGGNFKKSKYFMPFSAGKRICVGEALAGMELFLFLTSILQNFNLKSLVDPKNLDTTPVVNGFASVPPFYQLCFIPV
CYP2D6, sequence (P10635 whole entry): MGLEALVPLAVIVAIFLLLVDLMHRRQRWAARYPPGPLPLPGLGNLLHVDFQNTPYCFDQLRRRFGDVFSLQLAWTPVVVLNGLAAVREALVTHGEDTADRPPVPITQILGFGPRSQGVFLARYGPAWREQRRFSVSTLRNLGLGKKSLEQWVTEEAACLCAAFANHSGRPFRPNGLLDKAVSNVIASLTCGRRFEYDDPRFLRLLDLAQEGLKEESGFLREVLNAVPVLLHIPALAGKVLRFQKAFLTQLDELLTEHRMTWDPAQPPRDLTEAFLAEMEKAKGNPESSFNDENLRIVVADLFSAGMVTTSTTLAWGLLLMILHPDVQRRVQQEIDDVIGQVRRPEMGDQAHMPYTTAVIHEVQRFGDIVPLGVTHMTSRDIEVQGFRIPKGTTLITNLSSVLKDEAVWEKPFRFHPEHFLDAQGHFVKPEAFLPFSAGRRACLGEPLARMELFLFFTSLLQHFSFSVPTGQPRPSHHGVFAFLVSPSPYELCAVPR
CYP3A4, sequence (P08684 whole entry): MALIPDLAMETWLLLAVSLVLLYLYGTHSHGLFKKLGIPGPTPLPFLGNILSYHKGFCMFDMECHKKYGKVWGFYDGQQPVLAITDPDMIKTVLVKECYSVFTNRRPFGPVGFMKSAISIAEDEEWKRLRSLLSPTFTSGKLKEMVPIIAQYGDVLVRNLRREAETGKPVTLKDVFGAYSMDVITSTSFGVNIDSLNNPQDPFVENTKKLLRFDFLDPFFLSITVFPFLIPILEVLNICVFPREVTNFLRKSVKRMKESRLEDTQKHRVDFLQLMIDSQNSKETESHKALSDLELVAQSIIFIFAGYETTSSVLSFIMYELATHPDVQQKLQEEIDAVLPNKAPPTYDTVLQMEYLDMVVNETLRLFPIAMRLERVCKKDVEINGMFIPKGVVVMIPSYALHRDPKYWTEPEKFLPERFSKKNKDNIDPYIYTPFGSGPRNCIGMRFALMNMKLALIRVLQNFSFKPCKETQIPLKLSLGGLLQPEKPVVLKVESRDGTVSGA
CYP2C19, sequence (P33261 whole entry): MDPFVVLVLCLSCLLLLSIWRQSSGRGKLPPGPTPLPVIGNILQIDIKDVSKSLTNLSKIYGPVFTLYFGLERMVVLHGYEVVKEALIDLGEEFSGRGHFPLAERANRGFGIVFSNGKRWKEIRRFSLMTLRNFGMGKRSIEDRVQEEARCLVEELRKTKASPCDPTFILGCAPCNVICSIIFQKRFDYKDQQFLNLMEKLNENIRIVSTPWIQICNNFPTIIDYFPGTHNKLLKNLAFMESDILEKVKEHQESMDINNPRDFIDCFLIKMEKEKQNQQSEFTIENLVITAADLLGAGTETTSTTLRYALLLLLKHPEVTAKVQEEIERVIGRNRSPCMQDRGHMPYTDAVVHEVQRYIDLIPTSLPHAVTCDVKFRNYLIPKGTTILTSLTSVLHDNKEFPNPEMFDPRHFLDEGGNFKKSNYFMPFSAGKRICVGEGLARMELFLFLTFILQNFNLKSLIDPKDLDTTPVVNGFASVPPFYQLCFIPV
Voltage-gated inwardly rectifying potassium channel KCNH2, sequence (Q12809 whole entry): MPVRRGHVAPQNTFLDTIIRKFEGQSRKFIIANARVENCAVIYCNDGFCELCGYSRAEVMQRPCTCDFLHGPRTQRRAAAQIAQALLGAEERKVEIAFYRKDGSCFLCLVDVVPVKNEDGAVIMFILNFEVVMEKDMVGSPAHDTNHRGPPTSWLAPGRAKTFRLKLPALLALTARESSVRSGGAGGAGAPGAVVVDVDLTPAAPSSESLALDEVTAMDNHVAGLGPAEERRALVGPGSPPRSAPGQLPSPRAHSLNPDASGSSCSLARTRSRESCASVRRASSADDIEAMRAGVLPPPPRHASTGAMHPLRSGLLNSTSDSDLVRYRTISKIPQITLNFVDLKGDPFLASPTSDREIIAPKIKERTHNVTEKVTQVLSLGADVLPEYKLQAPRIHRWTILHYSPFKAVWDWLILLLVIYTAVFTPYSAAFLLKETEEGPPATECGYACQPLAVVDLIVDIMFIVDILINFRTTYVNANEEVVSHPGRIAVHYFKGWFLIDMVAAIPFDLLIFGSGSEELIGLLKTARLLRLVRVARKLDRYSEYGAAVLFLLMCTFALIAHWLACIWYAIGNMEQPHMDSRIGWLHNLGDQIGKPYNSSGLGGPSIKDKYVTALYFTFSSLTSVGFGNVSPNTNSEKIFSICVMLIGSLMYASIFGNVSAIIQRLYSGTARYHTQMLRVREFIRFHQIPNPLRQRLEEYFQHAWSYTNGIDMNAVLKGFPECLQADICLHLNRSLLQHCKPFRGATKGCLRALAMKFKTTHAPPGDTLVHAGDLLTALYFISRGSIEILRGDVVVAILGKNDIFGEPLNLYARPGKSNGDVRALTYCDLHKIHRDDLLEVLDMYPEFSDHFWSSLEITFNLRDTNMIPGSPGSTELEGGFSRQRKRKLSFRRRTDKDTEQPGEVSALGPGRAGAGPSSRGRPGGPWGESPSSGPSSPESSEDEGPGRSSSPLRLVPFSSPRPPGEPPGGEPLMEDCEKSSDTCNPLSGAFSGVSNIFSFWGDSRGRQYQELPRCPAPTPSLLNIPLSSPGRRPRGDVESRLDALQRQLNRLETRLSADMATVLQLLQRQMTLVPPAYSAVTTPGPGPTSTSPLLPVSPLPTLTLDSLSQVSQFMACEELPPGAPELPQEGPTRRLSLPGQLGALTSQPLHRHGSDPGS

As for `O=C(O)CO[C@@H]1c2ccccc2C[C@H]1NC(=O)c1cc2sc(Cl)c(Cl)c2[nH]1`, the IC50 (as a rule, the concentration needed to halve the response being measured) in data set [1] worked out at 30 nM. Also, the bioavailability in data set [2] turned out to be 5%.

Consider `O=C(O)C[C@@H]1c2ccccc2C[C@H]1NC(=O)c1cc2sc(Cl)c(Cl)c2[nH]1`, for which the concentration for half-maximal inhibition (IC50) in data set [1] was 18 nM; in data set [7], > 30000 nM. Moreover, the bioavailability in data set [2] and in data set [5] was 65% throughout. Moreover, the inhibition at 10 µM against CYP1A2, against CYP2C9, against CYP2C19, on CYP2D6 and against CYP3A4 was < 50% each time. Also, the clearance in [3] was found to be 0.23 mL/min/kg. Also, in data set [4], the Vd was 0.2 L/kg. Also, the half-life (commonly the time needed for the level to fall by half in the phase considered) in data set [6] was 8 h.

Regarding `O=C(O)C[C@H]1c2ccccc2C[C@@H]1NC(=O)c1cc2sc(Cl)c(Cl)c2[nH]1`, in data set [1], the 50% inhibitory concentration (IC50) came out at 1500 nM.

On to `O=C(O)CC(=O)N[C@@H]1c2ccccc2C[C@H]1NC(=O)c1cc2sc(Cl)c(Cl)c2[nH]1`, for which, in [1], the IC50 was 56 nM. In addition, the bioavailability in data set [2] worked out at 2%.

Regarding `O=C(O)CCO[C@@H]1c2ccccc2C[C@H]1NC(=O)c1cc2sc(Cl)c(Cl)c2[nH]1`, in [1], the IC50 worked out at 59 nM. Besides, in [2], the bioavailability came to 55%.

Take `O=C(O)C[C@@H]1c2ccccc2C[C@H]1NC(=O)c1cc2cc(Cl)ccc2[nH]1`: the concentration for half-maximal inhibition (IC50) in [1] came out at 57 nM. Besides, the bioavailability in data set [2] was 77%.

As to `O=C(O)C[C@@H]1c2ccccc2C[C@H]1NC(=O)c1cc2cc(Cl)cc(F)c2[nH]1`, the concentration for half-maximal inhibition (IC50) in [1] came out at 52 nM. Further, the bioavailability in [2] was 41%.

As for `O=C(O)C[C@H]1c2ccccc2C[C@@H]1NC(=O)c1cc2cc(Cl)sc2[nH]1`, in [1], the concentration for half-maximal inhibition (IC50) amounted to 1200 nM.

For the compound `O=C(O)CCCS(=O)(=O)C[C@@H]1c2ccccc2C[C@H]1NC(=O)c1cc2sc(Cl)c(Cl)c2[nH]1`, the IC50 in data set [1] stood at 42 nM. Moreover, the bioavailability in [2] was 2%. In the data set filed under Rattus norvegicus [8], this compound gave a fraction unbound of 0.3%.

In the case of `O=C(O)C[C@@H]1c2ccccc2C[C@H]1NC(=O)c1cc2cc(Cl)ncc2[nH]1`, the half-maximal inhibitory concentration (IC50) in data set [1] amounted to 260 nM. For the same compound, the bioavailability in data set [2] was 11%. This compound also yielded a fraction unbound in the data set listed under Rattus norvegicus [8] of 0.01%.

As to `COCC[C@H](C(=O)O)[C@@H]1c2ccccc2C[C@H]1NC(=O)c1cc2sc(Cl)c(Cl)c2[nH]1` [(S)-2-((1R,2R)-2-(2,3-DICHLORO-4H-THIENO[3,2-B]PYRROLE-5-CARBOXAMIDO)-2,3-DIHYDRO-1H-INDEN-1-YL)-4-METHOXYBUTANOIC ACID (DIASTEREOMERIC MIX)], the F with Rattus norvegicus [9] is 150% and 65%. Further, the inhibition at 10 µM on CYP1A2, at CYP2C9, on CYP2C19, against CYP2D6 and against CYP3A4 was < 50% throughout. Besides, in the data set with Rattus norvegicus [10], the Activity amounted to 50%. In addition, in data set [3], the clearance is 0.4 mL/min/kg. This compound also returned a Vd in data set [4] of 0.2 L/kg. Further, the bioavailability in [5] came to 118%. Further, in [6], the half-life was 7 h.

For `O=C(O)C[C@@H]1c2ccccc2C[C@H]1NC(=O)c1cc2cc(Cl)c(F)cc2[nH]1`, the IC50 in data set [1] came out at 76 nM. For the same compound, in [2], the bioavailability is 65%.

Regarding `O=C(O)C[C@@H]1c2ccccc2C[C@H]1NC(=O)c1cc2cc(F)ccc2[nH]1`, in data set [2], the bioavailability came out at 88%.

Regarding `O=C(O)CCC[C@@H]1c2ccccc2C[C@H]1NC(=O)c1cc2sc(Cl)c(Cl)c2[nH]1`, the IC50 in [1] was determined as 54 nM. For the same compound, the bioavailability in data set [2] amounted to 118%.

Regarding `O=C(O)CC[C@@H]1c2ccccc2C[C@H]1NC(=O)c1cc2sc(Cl)c(Cl)c2[nH]1`, the IC50 in data set [1] came out at 56 nM. For the same compound, the bioavailability in data set [2] came out at 80%.

On to `O=C(O)C[C@@H]1c2ccccc2C[C@H]1NC(=O)c1cc2cc(Cl)sc2[nH]1`, for which the half-maximal inhibitory concentration (IC50) in [1] came out at 40 nM. Also, the bioavailability in [2] stood at 41%.

In the case of `O=C(O)CSC[C@@H]1c2ccccc2C[C@H]1NC(=O)c1cc2sc(Cl)c(Cl)c2[nH]1`, the IC50 in [1] was determined as 40 nM. In data set [2], the bioavailability came out at 23%.
